In patent US12624068B2, “Exon skipping by peptide nucleic acid derivatives” (OliPass Corporation, priority 2016, dated 2026):
[C(1O2)] = modified PNA monomer acting as cytosine, C(pOq) type, 1O2; [A(5)] = modified PNA monomer acting as adenine, A(p) type, p=5; [G(6)] = modified PNA monomer acting as guanine, G(p) type, p=6; {Fethoc} = N-terminal Fethoc cap; {NH2} = C-terminal amide

What was measured:
[1] = system: mouse dystrophin pre-mRNA; assay: Dystrophin nested PCR (Method B) in muscles of mdx mice; assay type: in vivo; settings: skeletal muscles sampled in Week 7
Method: The RNA samples obtained in “DMD Example 1” were subjected to a one-step cDNA synthesis using a set of exon-specific primers of [DMD-exon 20_forward: (5'→3') […] NO: 107); and DMD-exon 26_reverse: (5'→3') […] NO: 108)]. The cDNA samples were then analyzed by nested PCR against another set of exon-specific primers of [DMD-exon 20n_forward: (5'→3') […] NO: 109); and DMD-exon 26n_reverse: (5'→3') […] NO: 110)]. [Nested PCR for Exon Skipping (Method B)] Muscle samples were homogenized by grinding in a tube kept on ice, and subjected to total RNA extraction with 1 mL trizol reagent (Invitrogen) per ca 100 mg muscle tissue. The total RNAs were evaluated for exon skipping by nested PCR as described in “DMD Example 2”.

[2] = system: full-length dystrophin; assay: IHC of skeletal muscles against full-length dystrophin in mdx mice; assay type: in vivo
Source text: [IHC Evaluation of Skeletal Muscles against Full-length Dystrophin] In Weeks 7, 13 and 21, two animals per group were randomly selected and sacrificed to extract muscle tissues. In Week 30, 3 animals were sacrificed per group.
The muscle tissues sampled in Week 7 were subjected to IHC against the full-length dystrophin by cryosection. The muscle tissues sampled in Weeks 13, 21 and 30 were immunostained by paraffin block. IHC by paraffin block yielded images of better quality than IHC by cryosection.
Muscle samples were subjected to immunostaining in series with a primary antibody targeting the C-terminal of mouse dystrophin (Cat. Number sc-816, Santa Cruz) at 1:100 dilution, with a secondary anti-IgG antibody (Cat Number BA-1100, Vector) at 1:200 dilution, and then with Dylight 594-streptavidin (Cat Number SA-5594, Vector, CA, USA) at 1:200 dilution for red fluorescence tagging. The IHC images were captured on a Zeiss slide scanner (in Weeks 13, 21 and 30) or an Olympus fluorescence microscope (in Week 7). […]
The dystrophin IHC images were subjected to quantification for the full-length dystrophin expression by digitally scoring the intensity of red fluorescence in each individual IHC image using the “ImageJ” program (NIH). Individual fluorescence scores were combined by group and muscle type for statistical evaluation against the wild type negative control group.

[3] = system: SCN9A mRNA; assay: SCN9A nested qPCR by SYBR Green in PC3 cells; assay type: cell-based, human; settings: 24 hours
Method: “SCN-ASO 7” was evaluated for its ability to inhibit the expression of the human SCN9A mRNA in PC3 cells by qPCR against a set of exon-specific primers as follows. [Cell Culture & ASO Treatment] PC3 cells grown in 60 mm culture dish containing 5 mL culture medium were incubated with “SCN-ASO 7” for 24 hours at 0 (negative control), 10, 100 or 1,000 zM. (2 culture dishes per concentration) [RNA Extraction] […] [cDNA Synthesis by One Step RT-PCR] […] NO: 78); and SCN-exon 9_reverse: (5'→3') […] NO: 79)]. […] [Nested qPCR Amplification] […] NO: 80); SCN-exon 4_reverse: (5'→3') […] NO: 81); SCN-exon 5_forward: (5'→3') […] NO: 82); SCN-exon 5_reverse: (5'→3') […] NO: 83); SCN-exon 6_forward: (5'→3') […] NO: 84); SCN-exon 6_reverse: (5'→3') […] NO: 85)]. The PCR reactions were probed with SYBR Green (Takara, Japan). […] “SCN-ASO 3” was evaluated for its ability to inhibit the expression of the full-length SCN9A mRNA in PC3 cells according to the protocol described in “SCN9A Example 2”, unless noted otherwise. “SCN-ASO 8” was evaluated for its ability to inhibit the expression of the full-length SCN9A mRNA in PC3 cells according to the protocol described in “SCN9A Example 2”, unless noted otherwise.

[4] = system: rats with diabetes-induced peripheral neuropathic pain (DPNP); assay: Reversal of allodynia (von Frey) in rats with diabetes-induced peripheral neuropathic pain; assay type: in vivo, rat; settings: 100 pmole/Kg subcutaneous in Days 11, 13, 15, 17 and 19
Method: “SCN-ASO 7”, “SCN-ASO 8”, “SCN-ASO 21”, “SCN-ASO 35”, “SCN-ASO 36” and “SCN-ASO 37” were evaluated for their ability to reverse the allodynia in rats with diabetes-induced peripheral neuropathic pain (DPNP). In this example, the six SCN9A ASOs targeting a total of five splice sites were evaluated for their ability to reverse the allodynia induced by diabetic neuropathy in rats.
[Induction of DPNP and Grouping] Diabetes was induced in rats by an intraperitoneal injection of streptozotocin at 60 mg/Kg in Day 0. In Day 10, rats with DPNP were randomly assigned to […] of negative control (vehicle only), “SCN-ASO 7” 100 pmole/Kg, “SCN-ASO 8” 100 pmole/Kg, “SCN-ASO 21” 100 pmole/Kg, “SCN-ASO 35” 100 pmole/Kg, “SCN-ASO 36” 100 pmole/Kg, and “SCN-ASO 37” 100 pmole/Kg. The animals were grouped based on the von Frey scores of individual animals in Day 10. (N=8-9 per group) Allodynia was scored using a set of microfilaments (Touch Test®) according to the “Up & Down” method. [J Neurosci. Methods vol 53(1), 55-63 (1994)]
[ASO Treatment and von Frey Scoring] ASO solutions for injection were prepared by serially diluting aqueous mother stock solutions of the SCN9A ASOs to 100 nM in PBS (phosphate buffered saline). Animals were subcutaneously administered with ASO at 1 mL/Kg in Days 11, 13, 15, 17 and 19. Von Frey scoring was carried out 2 hours post dose in Days 11, 13, 15, 17 and 19. Von Frey scoring was additionally performed in Days 21 and 23 in order to assess the duration of the therapeutic activity after the final dosing. Daily von Frey scores were evaluated for statistical significance by student's t-test against the negative control group (vehicle only, i.e., PBS).

Substance | in-frame PCR products of Δexons 21-23 and Δexons 21-24 (nested PCR Method B) [1] | in vivo potency relative to the PMO ASO eteplirsen (30 mg/Kg per week) ([2]; 200 pmole/Kg corresponds to ca 1 μg/Kg, different species and exon) | full-length dystrophin expression relative to the WT negative control group (IHC) ([2]; mdx mice, 200 pmole/Kg 2× per week, Week 30) | decrease of expression levels of SCN9A exons 4-6 (SYBR Green) ([3]; PC3 cells, 10 zM) | decrease of expression levels of SCN9A exons 4-6 (SYBR Green) ([3]; PC3 cells, 100 zM) | decrease of expression levels of SCN9A exons 4-6 (SYBR Green) ([3]; PC3 cells, 1,000 zM) | maximum therapeutic efficacy based on the von Frey scores in Day 19 [4]
Fethoc-A(5)GA-G(6)CC(1O2)-TCA-A(5)AA(5)-T-NH2 (antisense AGAGCCTCAAAAT; Fethoc N-cap, C-terminal amide, chemistry not fully specified) [DMD-ASO 1] | detected in muscle samples of the ASO treatment groups | ~30,000 times | > 80% |  |  |  | 
Fethoc-AC(1O2)T-TA(5)C-G(6)CA-A(5)AA(5)-AC(1O2)A-A(5)-NH2 (ACTTACGCAAAAACAA; all peptide nucleic acid (PNA), [C(1O2)] at 2, 14, [A(5)] at 5, 10, 12, 16, [G(6)] at 7, 5' {Fethoc}, 3' {NH2}; peptide nucleic acid written N to C) [SCN-ASO 7] |  |  |  | ~70% | 40% | 20-30% | ~76%
